{"source": "patent US6583114B2", "about": "“Fracture healing using pthrp analogs” (Roche Palo Alto LLC, priority 1997, dated 2003)", "key": {"ulnar osteotomy": {"system": "ulnar osteotomy", "test": "Ulnar osteotomy model, corticosteroid induced delayed healing (Example 4)", "assay_type": "in vivo, rabbit", "procedure": "Adult male New Zealand White rabbits were used in all experiments. In Part I, ten rabbits were divided into two equal groups and in Part II, twenty rabbits were divided equally. Non critical sized (1 mm) defects were created bilaterally in each rabbit. From two months prior to surgery through six weeks post-operative, all rabbits received daily subcutaneous injections of either prednisone (0.15 mg/kg) in sterile water (experimental group) or sterile saline (control group). Beginning on the first post-operative day, the experimental group were administered daily sub cutaneious infections of PTHrP analog D (0.01 mg/kg), while the control group received injections of normal saline. In Part I, animals were sacrificed at six weeks after creation of the osteotomy. In Part II, animals were sacrificed once radiographic union was reached bilaterally, or in cases of non-union at ten weeks post-operative. In both sets of experiments, radiological intensity and healing area were analyzed every other week starting two weeks (Part I) or four weeks (Part II) post-operatively. Serial radiographs of the forelimbs were taken and digitized and the bone area was quantified using image analysis software (Sigma Scan Pro). Photodensitometry was used to quantitate the mineral content of the newly formed bone at sites of osteotomy and callus formation. After sacrifice, high resolution faxitron radiographs were taken of both limbs in the anteroposterior and lateral planes, allowing for analysis of fracture callus dimension and size."}, "[1]": {"system": "intramembraneous bone defect", "test": "Intramembraneous bone healing, drill hole defects in distal femur and proximal tibia (Example 3)", "assay_type": "in vivo, rabbit", "settings": "for intramembraneous bone formation relative to vehicle treated animals: 2 or 10 μg/kg/day subcutaneous daily; for femoral defects healed / tibial defects healed: day 21", "description": "Rabbits were generally anesthesized and subjected to surgery to create four surface defects, one in each distal femur and one in each proximal tibia. A posterior lateral surgical incision measuring approximately 3 cm. was made to expose the distal lateral femoral condyle. Bone proximal to the knee joint was subperiosteally exposed and a 5 mm drill hole was made, keeping the drill bit cool by constant irrigation. The wound was irrigated with normal saline. Deep tissue was closed with a running 3-0 chronic suture followed by closure of the subticular layer with a running 3-0 nylon suture and three to four interrupted stainless steel sutures. A second 3 cm. incision was made over the medial proximal tibia and a 5 mm drill hole was made in the proximal medial tibia. The wound was closed as described previously. The entire procedure was repeated on the contralateral limb.\nStock solutions of PTHrP analog C, (MAP1-10)^22-31His^26hPTHrP(1-34)NH2, and PTHRP analog D, (MAP1-10)^22-31hPTHrP(1-34)NH2, at 800 μg/ml were prepared by sterile filtration through an 0.22 micron filter and diluted in vehicle to either 20 μg/ml or 100 μg/ml just before administration. Vehicle was 30 mg/ml mannitol, 30/mg/ml sucrose, 0.12 mg/ml Tween™ 80, 0.17 mg/ml acetic acid and 2.33 mg/ml sodium acetate trihydrate. PTHrP analogs at either 2 μg/kg/day or 10 μg/kg/day was administered daily by subcutaneous injection to the surgically treated animals.\nAnimals were X-rayed weekly for the duration of the study. Densitometric measurements were made using a transilluminating scanner and MetaMorph™ (Universal Imaging, West Chester, Pa.) software. Radiographs of the lower extremities were performed in internal and external rotation on post-operative day 10 and 21. The animals were sacrificed on post-operative day 30. At the end of the study, animals were euthanized by pentobarbital overdose, tissues were harvested from the left and right femurs and tibias were analyzed by x-ray and histological analysis."}, "segmental femoral defect": {"system": "segmental femoral defect", "test": "Segmental femoral defect rat fracture model (Example 1)", "assay_type": "in vivo", "settings": "for bone growth in the defects (weekly radiographic density of segmented bone defect) relative to control: FIG. 1, after four weeks of treatment; for bone growth in the defects (weekly radiographic density of segmented bone defect) relative to control / bone healing and fracture repair, treated versus control animals: subcutaneous daily; for radiographic density ratio of the segmented bone to the contralateral femur: FIG. 2, after six weeks of treatment, relative to control treated rats; for bone healing and fracture repair, treated versus control animals: radiography, sacrifice at 6 weeks", "procedure": "T. A. Einhorn et al. “The Healing of Segmented Bone Defects Induced by Demineralized Bone Matrix. A Radiographic and Biomechanical Study,” J. Bone Joint, 66:274-279 (1984.\nAdult male Sprague-Dawley rats weighing about 300 grams were maintained on Laboratory Rodent Diet 5001 (PMI Feeds, St. Louis, Mo.) and water ad libitum. All rats received only water for 12 hours prior to surgery. The animals were anesthetized prior to surgery by IP injection with ketamine (80 mg/kg) and xylazine (5 mg/kg). A single dose of procaine penicillin was given intramuscularly for prophylaxis against infection.\nA lateral approach to the femur was used and a pre-drilled high density polyethylene plate was fixed along the anterior cortex of the femur. During this placement the periosteum of the femur was extensively stripped. A […] non-critical sized segmental defect was created in the mid portion of the femur shaft. The wound was closed with nylon and chromic sutures.\nPostoperatively, the rats were placed in cages with 48 hour post-operative access to food pellets. The animals were monitored at least once daily and animals displaying any signs of illness were examined and given appropriate therapy if necessary.\nRats were divided into groups as shown in Table 1 and either a control vehicle (saline) or a PTHrP analog as described herein was administered subcutaneously daily starting on post-operative day 1. Radiographic analyses were performed weekly. Animals were sacrificed at 6 weeks and compared by radiography.\nSedated rats were placed in the prone position with hindlimbs externally rotated. Serial radiographs of each femur (involved femur and contralateral femur) were taken weekly starting with postoperative week 1. An aluminium phantom device with known density values was included in each radiograph for calibration. Each radiograph was placed on a translumination board and a picture taken using a DCS 420 digital Kodak camera. These images were then transferred to a Gateway 2000 IBM compatible computer and digitized using image analysis software (Sigma Scan©). An outline of the defect was traced and the average density of the area of the osteotomy measured in treated animals relative to control animals. […] The average density of the osteotomy was also compared to the average density of the contralateral femur for each weekly reading. […] After sacrifice (6 weeks), the femurs (experimental and contralateral) were dissected free of soft tissue. Fine grain radiographs were taken of the femurs in the lateral plane. The osteotomy was considered united when there was osseous continuity of the femur across more than 25% of the cross sectional diameter of the defect."}, "fracture healing": {"system": "fracture healing", "settings": "intermittent treatment; ovariectomized rats; Kim et al.; cited from earlier work"}, "[2]": {"settings": "high dose group (10 μg/kg/day s.c.)"}, "[3]": {"settings": "low dose group (2 μg/kg/day s.c.), no complete healing in controls"}}, "data": [{"molecule": "(MAP1-10)^22-31hPTHrP(1-34)NH2 [PTHrP analog D]", "values": [{"measurement": "torsional strength (stiffness and maximum torque) versus vehicle-treated control limbs", "setting": "ulnar osteotomy; Part I, biomechanical", "result": "significantly greater"}, {"measurement": "intensities at the osteotomy sites, anteroposterior and lateral faxitrons, treated versus control limbs", "setting": "ulnar osteotomy; Part I, six weeks", "result": "significantly greater"}, {"measurement": "intensity of proximal and distal ulnar diaphyses, treated versus control limbs", "setting": "ulnar osteotomy; Part I, six weeks", "result": "significantly greater"}, {"measurement": "intensity of the external calluses (lateral), treated versus control limbs", "setting": "ulnar osteotomy; Part I, six weeks", "result": "also greater"}, {"measurement": "limbs that achieved union", "setting": "ulnar osteotomy; Part I, six weeks, 0.01 mg/kg daily s.c., prednisone, two out of ten in vehicle controls, FIG. 5", "result": "Nine out ten"}, {"measurement": "area of the osteotomy versus vehicle control limbs", "setting": "ulnar osteotomy; Part II, after sacrifice", "result": "significantly smaller"}, {"measurement": "radiographic intensity at the osteotomy site, ulnar diaphysis and callus area versus vehicle control limbs", "setting": "ulnar osteotomy; Part II, after sacrifice, p<0.05 at osteotomy site", "result": "greater radiographic intensity"}, {"measurement": "radiographic intensity at the osteotomy site, external calluses and ulnar diaphyses versus control limbs", "setting": "ulnar osteotomy; Part II, four weeks, p<0.01 at osteotomy site", "result": "greater radiographic intensity"}, {"measurement": "combined callus areas versus control limbs", "setting": "ulnar osteotomy; Part II, four weeks, p<0.05", "result": "greater"}, {"measurement": "callus intensity or area versus control limbs", "setting": "ulnar osteotomy; Part II, six weeks", "result": "no differences"}, {"measurement": "intensity at the osteotomy site versus control limbs, in vivo radiography", "setting": "ulnar osteotomy; Part II, six weeks", "result": "trend of increased intensity"}, {"measurement": "union rate", "setting": "ulnar osteotomy; Part II, six weeks, radiographic union", "result": "complete union rate"}, {"measurement": "intramembraneous bone formation relative to vehicle treated animals", "setting": "[1]", "result": "accelerated intramembraneous bone formation"}, {"measurement": "tibial defects filled with mineralized tissue", "setting": "[1]; at sacrifice (day 30), high dose, radiographic analysis, p<0.01 vs control (less than 10%)", "result": "over 85%"}, {"measurement": "percent fill of femoral defects versus control treated femoral defects", "setting": "[1]; at sacrifice, p<0.01", "result": "significant greater percent fill"}, {"measurement": "femoral defects healed", "setting": "[1]; [2]", "result": 50, "unit": "%"}, {"measurement": "tibial defects healed", "setting": "[1]; [2]", "result": 75, "unit": "%"}, {"measurement": "femoral defects healed", "setting": "[1]; [3]", "result": 40, "unit": "%"}, {"measurement": "tibial defects healed", "setting": "[1]; [3]", "result": 40, "unit": "%"}]}, {"molecule": "(MAP1-10)^22-31Ala^19hPTHrP(1-34)NH2 [PTHrP analog B]", "values": [{"measurement": "bone growth in the defects (weekly radiographic density of segmented bone defect) relative to control", "setting": "segmental femoral defect", "result": "greater than in the control animals"}, {"measurement": "radiographic density ratio of the segmented bone to the contralateral femur", "setting": "segmental femoral defect", "result": "increased bone density"}]}, {"molecule": "(MAP1-10)^22-31hSer^34PTHrP(1-34)THIQ NH2", "values": [{"measurement": "bone healing and fracture repair, treated versus control animals", "setting": "segmental femoral defect", "result": "accelerated bone healing and fracture repair"}]}, {"molecule": "(MAP1-10)^22-31c[Lys^13, Asp^17]hPTHrP(1-34)NH2", "values": [{"measurement": "bone healing and fracture repair, treated versus control animals", "setting": "segmental femoral defect", "result": "accelerated bone healing and fracture repair"}]}, {"molecule": "(MAP1-10)^22-31His^26hPTHrP(1-34)NH2 [PTHrP analog C]", "values": [{"measurement": "bone growth in the defects (weekly radiographic density of segmented bone defect) relative to control", "setting": "segmental femoral defect", "result": "greater than in the control animals"}, {"measurement": "radiographic density ratio of the segmented bone to the contralateral femur", "setting": "segmental femoral defect", "result": "increased bone density"}, {"measurement": "union of the defect in high resolution radiographs", "setting": "segmental femoral defect; FIG. 3, after treatment for six weeks, control defect remains non-united", "result": "has healed"}, {"measurement": "intramembraneous bone formation relative to vehicle treated animals", "setting": "[1]", "result": "accelerated intramembraneous bone formation"}]}, {"molecule": "parathyroid hormone (protein, UniProt P01270 32-115, looked up, Parathyroid hormone recombinant, Recombinant human (1-84) parathyroid hormone, per the cited Kim et al. titles) Parathyroid hormone: SVSEIQLMHNLGKHLNSMERVEWLRKKLQDVHNFVALGAPLAPRDAGSQRPRKKEDNVLVESHEKSLGEADKADVNVLTKAKSQ", "values": [{"measurement": "fracture healing", "setting": "fracture healing", "result": "improves fracture healing"}]}]}
